The source of these data is patent US20180280377A1, “Imidazo[4,5-c]quinolin-2-one Compounds and Their Use in Treating Cancer” (ASTRAZENECA AB, priority 2015, published 2018).

What all share (format): cell-based
One assay addresses PI3Kα (Homo sapiens, UniProt P42336). Briefly: PI3K cellular potency assay (phospho-Akt T308 in BT474 cells, ELISA). As to conditions: 2 h, phospho-Akt (T308); Table 2; read-out: Assay c) PI3Kα Cell IC50. The protocol: (§1) The following assays were used to measure the effects of the compounds of the present invention: a) ATM cellular potency assay; b) PI3K cellular potency assay; c) mTOR cellular potency assay; d) ATR cellular potency assay. During the description of the assays, generally: • i. […] IC50 values were calculated using a smart fitting model in Genedata.
This assay was used to measure PI3K-α inhibition in cells. PDK1 was identified as the upstream activation loop kinase of protein kinase B (Akt1), which is essential for the activation of PKB. Activation of the lipid kinase phosphoinositide 3 kinase (PI3K) is critical for the activation of PKB by PDK1.
Following ligand stimulation of receptor tyrosine kinases, PI3K is activated, which converts PIP2 to PIP3, which is bound by the PH domain of PDK1 resulting in recruitment of PDK1 to the plasma membrane where it phosphorylates AKT at Thr308 in the activation loop.
The aim of this cell-based mode of action assay is to identify compounds that inhibit PDK activity or recruitment of PDK1 to membrane by inhibiting PI3K activity. Phosphorylation of phospho-Akt (T308) in BT474c cells following treatment with compounds for 2 h is a direct measure of PDK1 and indirect measure of PI3K activity.
The following morning compounds in 100% DMSO were added to assay plates by acoustic dispensing.
Plates were incubated over night at 4° C. The next day the plates were washed with PBS buffer containing 0.05% Tween 20 and further incubated with a mouse monoclonal anti-phospho AKT T308 for 2 h. Plates were washed again as above before addition of a horse anti-mouse-HRP conjugated secondary antibody. […] The developed fluorescent product was stopped after 60 minutes by addition of Stop solution to the wells.

The target in the next assay is T1, ATR (Homo sapiens, UniProt Q13535).
T1 construct: endogenous in cells; host or cells: HT29 cells (ECACC #85061109)
Briefly: ATR cellular potency assay (pChk1 Ser345 in HT29 cells after 4NQO). The conditions noted are these: pChk1 (Ser 345); Table 2; read-out: Assay b) ATR Cell IC50. The procedure: as §1
ATR is a PI3-kinase-related kinase which phosphorylates multiple substrates on serine or threonine residues in response to DNA damage during or replication blocks. Chk1, a downstream protein kinase of ATR, plays a key role in DNA damage checkpoint control. Activation of Chk1 involves phosphorylation of Ser317 and Ser345 (the latter regarded as the preferential target for phosphorylation/activation by ATR).
The following morning compound of Formula (I) in 100% DMSO were added to assay plates by acoustic dispensing. After 1 h incubation at 37° C. and 5% CO2, 40 nl of 3 mM 4NQO in 100% DMSO was added to all wells by acoustic dispensing, except minimum control wells which were left untreated with 4NQO to generate a null response control. Plates were returned to the incubator for a further 1 h. Then cells were fixed by adding 20 μl of 3.7% formaldehyde in PBS solution and incubating for 20 mins at r.t. Then […] of 0.1% Triton X100 in PBS was added and incubated for 10 minutes at r.t., to permeabalise cells. Then the plates were washed once with […] PBS, using a Biotek EL405 plate washer.
After 2 h incubation at r.t., the plates were washed three times with […] PBS, using a Biotek EL405 plate washer, and plates were then sealed with black plate seals until read. Plates were read using an ArrayScan VTI instrument, using an XF53 filter with 10× objective.

Another assay concerns the target T2, ATM (Homo sapiens, UniProt Q13315).
T2 construct: endogenous in cells; host or cells: HT29 cells (ECACC #85061109)
Briefly: ATM cellular potency assay (pATM Ser1981 in irradiated HT29 cells). As to conditions: 1 h compound, X-ray irradiation, pATM (Ser1981); Table 2; read-out: Assay a) ATM Cell IC50. The procedure:
as §1
Most ATM molecules in the cell are rapidly phosphorylated on this site after doses of radiation as low as 0.5 Gy, and binding of a phosphospecific antibody is detectable after the introduction of only a few DNA double-strand breaks in the cell.
The rationale of the pATM assay is to identify inhibitors of ATM in cells. HT29 cells are incubated with test compounds for 1 h prior to X-ray-irradiation. 1 h later the cells are fixed and stained for pATM (Ser1981). The fluorescence is read on the arrayscan imaging platform.
The following morning compounds of Formula (I) in 100% DMSO were added to assay plates by acoustic dispensing. After 1 h incubation at 37° C. and 5% CO2, plates (up to 6 at a time) were irradiated using the X-RAD 320 instrument (PXi) with equivalent to 600 cGy. Plates were returned to the incubator for a further 1 h. Then cells were fixed by adding 20 μl of 3.7% formaldehyde in PBS solution and incubating for 20 minutes at r.t. before being washed with 50μl/well PBS, using a Biotek EL405 plate washer. Then 20 μl of 0.1% Triton X100 in PBS was added and incubated for 20 minutes at r.t., to permeabalise cells. Then the plates were washed once with 50 μl/well PBS, using a Biotek EL405 plate washer.
After 1 h incubation at r.t., the plates were washed three times with 50 μl/well PBS, using a Biotek EL405 plate washer, and plates were sealed and kept in PBS at 4° C. until read. Plates were read using an ArrayScan VTI instrument, using an XF53 filter with 10× objective.

Sequence of PI3Kα (P42336 whole entry): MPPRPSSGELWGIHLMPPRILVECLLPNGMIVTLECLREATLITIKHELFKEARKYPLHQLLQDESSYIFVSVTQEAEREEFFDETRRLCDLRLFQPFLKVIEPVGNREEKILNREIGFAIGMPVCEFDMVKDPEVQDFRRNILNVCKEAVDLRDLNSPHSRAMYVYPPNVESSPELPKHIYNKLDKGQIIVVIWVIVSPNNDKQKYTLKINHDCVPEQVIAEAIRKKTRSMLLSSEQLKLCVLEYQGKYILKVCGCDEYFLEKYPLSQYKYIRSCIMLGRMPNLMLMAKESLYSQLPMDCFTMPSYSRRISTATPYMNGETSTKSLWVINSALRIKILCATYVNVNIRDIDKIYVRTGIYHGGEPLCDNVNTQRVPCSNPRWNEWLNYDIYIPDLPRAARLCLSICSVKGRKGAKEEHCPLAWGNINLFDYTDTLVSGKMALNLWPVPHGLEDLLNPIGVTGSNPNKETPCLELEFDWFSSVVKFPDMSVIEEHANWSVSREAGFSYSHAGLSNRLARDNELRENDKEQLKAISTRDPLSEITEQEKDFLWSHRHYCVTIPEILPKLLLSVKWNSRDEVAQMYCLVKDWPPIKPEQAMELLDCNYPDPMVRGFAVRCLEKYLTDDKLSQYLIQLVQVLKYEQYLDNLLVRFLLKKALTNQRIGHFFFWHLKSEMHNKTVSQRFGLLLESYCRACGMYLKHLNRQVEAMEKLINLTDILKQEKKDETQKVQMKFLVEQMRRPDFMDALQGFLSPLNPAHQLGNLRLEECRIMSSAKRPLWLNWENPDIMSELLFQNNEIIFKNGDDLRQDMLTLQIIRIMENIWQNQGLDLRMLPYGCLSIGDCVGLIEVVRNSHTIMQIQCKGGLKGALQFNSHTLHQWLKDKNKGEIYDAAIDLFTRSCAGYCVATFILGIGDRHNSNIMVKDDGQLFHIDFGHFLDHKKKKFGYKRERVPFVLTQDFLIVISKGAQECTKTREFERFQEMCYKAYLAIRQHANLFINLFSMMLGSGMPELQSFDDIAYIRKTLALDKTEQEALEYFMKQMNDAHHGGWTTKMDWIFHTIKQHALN
Sequence of PI3Kα (P27986 2-724, further chain): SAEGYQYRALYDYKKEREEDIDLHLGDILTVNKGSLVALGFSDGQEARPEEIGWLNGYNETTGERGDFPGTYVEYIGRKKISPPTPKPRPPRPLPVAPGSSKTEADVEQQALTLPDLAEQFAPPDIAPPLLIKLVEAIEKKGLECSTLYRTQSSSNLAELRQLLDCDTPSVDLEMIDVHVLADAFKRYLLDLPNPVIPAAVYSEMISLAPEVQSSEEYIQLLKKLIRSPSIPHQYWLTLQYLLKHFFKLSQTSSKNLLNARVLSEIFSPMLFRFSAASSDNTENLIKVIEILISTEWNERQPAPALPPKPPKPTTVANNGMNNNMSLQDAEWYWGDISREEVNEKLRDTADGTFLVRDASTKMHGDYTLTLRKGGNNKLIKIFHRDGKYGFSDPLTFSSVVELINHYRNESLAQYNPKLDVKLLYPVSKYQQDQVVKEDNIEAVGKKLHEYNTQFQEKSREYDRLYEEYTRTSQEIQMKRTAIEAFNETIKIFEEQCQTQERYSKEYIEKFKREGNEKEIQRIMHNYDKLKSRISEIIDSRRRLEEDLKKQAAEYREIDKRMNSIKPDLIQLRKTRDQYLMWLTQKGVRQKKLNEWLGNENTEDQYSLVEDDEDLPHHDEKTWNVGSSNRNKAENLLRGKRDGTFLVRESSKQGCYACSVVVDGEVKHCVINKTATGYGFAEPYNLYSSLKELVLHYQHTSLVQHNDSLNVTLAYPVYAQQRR
T2 sequence (Q13315 whole entry): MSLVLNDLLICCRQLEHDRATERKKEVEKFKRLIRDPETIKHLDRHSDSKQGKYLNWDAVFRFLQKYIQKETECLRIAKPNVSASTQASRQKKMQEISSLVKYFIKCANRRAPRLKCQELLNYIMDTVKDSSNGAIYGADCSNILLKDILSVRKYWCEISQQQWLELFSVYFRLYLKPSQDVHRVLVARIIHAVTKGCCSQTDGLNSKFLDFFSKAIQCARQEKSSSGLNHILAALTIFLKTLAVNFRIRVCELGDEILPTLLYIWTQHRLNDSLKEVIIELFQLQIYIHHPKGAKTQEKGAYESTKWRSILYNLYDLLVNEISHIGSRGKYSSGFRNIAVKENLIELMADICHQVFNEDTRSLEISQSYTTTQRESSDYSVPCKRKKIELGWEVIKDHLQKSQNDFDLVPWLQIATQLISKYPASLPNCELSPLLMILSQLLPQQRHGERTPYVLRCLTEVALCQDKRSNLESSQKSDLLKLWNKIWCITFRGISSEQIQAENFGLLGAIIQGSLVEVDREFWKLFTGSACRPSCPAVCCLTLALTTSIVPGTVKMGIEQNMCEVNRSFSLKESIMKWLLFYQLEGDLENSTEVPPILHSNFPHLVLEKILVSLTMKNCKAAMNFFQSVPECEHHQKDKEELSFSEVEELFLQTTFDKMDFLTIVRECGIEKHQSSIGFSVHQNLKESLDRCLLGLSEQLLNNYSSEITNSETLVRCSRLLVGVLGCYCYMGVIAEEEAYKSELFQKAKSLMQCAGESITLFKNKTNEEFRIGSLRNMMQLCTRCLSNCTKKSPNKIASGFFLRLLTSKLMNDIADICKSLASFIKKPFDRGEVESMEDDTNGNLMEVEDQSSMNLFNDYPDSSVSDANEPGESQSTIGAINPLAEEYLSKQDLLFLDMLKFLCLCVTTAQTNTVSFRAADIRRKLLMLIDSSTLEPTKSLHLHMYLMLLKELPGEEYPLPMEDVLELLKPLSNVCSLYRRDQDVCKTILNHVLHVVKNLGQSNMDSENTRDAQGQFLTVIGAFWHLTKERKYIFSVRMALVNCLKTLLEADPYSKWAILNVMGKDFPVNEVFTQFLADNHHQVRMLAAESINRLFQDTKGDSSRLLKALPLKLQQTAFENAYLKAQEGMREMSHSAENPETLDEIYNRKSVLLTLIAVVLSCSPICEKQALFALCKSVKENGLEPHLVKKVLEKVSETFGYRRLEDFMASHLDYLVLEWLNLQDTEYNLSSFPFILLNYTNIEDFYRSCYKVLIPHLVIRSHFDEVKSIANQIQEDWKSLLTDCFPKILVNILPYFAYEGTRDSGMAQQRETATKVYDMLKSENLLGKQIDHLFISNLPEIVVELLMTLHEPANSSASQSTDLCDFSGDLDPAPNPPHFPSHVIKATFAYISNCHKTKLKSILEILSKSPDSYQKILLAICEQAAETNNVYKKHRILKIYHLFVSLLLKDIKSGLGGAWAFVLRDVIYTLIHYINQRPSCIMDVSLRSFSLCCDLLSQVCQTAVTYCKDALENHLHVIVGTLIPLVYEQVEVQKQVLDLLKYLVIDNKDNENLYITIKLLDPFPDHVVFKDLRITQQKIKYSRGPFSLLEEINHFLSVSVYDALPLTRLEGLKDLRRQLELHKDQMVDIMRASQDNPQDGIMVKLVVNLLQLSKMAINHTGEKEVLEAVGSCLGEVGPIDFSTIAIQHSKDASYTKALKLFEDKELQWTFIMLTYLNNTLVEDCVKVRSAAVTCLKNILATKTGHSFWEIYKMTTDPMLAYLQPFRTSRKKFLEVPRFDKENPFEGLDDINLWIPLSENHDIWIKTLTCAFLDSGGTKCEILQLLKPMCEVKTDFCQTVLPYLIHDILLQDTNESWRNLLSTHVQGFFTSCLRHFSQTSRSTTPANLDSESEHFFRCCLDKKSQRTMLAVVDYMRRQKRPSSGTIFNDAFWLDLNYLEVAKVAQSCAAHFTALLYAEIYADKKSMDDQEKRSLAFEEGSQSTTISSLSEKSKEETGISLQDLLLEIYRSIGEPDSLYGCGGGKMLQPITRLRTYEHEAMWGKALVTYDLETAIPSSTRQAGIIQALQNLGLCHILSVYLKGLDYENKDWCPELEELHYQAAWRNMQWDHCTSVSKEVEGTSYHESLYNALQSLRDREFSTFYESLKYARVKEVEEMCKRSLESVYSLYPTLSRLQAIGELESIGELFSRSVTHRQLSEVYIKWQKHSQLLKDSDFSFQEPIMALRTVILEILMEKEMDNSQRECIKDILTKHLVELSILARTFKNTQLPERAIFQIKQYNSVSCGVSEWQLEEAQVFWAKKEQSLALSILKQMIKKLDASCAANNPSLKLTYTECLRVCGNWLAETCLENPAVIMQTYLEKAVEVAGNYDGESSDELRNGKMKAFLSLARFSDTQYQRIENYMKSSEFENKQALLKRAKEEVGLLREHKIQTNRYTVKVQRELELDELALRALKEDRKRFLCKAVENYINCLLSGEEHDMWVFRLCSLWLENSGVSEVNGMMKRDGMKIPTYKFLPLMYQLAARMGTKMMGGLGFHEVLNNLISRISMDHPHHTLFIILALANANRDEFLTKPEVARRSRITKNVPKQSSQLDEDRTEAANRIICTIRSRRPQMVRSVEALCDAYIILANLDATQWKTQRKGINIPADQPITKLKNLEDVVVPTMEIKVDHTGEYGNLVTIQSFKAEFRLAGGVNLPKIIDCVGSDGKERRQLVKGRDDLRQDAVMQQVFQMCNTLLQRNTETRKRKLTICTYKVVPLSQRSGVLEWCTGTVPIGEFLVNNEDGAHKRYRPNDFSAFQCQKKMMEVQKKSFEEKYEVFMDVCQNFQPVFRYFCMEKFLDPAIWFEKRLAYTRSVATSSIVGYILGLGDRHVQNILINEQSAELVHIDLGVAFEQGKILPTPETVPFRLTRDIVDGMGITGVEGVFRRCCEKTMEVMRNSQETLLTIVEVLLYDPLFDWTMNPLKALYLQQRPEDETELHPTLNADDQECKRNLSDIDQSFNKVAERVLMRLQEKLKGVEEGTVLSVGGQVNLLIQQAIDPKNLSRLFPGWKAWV

With `CC(C)n1c(=O)n(C)c2cnc3ccc(-c4ccc(N5CC(N(C)C)C5)nc4)cc3c21` [Example 4, 8-[6-[3-(dimethylamino)azetidin-1-yl]-3-pyridyl]-1-isopropyl-3-methyl-imidazo[4,5-c]quinolin-2-one], the IC50 (usually the concentration needed to halve the response being measured) on PI3Kα was 243 nM.
In the case of `CC(C)n1c(=O)n(C)c2cnc3cc(F)c(-c4ccc(N5CCC(N(C)C)CC5)nc4)cc3c21` [Example 3, 8-[6-[4-(dimethylamino)-1-piperidyl]-3-pyridyl]-7-fluoro-1-isopropyl-3-methyl-imidazo[4,5-c]quinolin-2-one], the IC50 on ATR is over 30000 nM; on PI3Kα, 19300 nM.
Turning to `CO[C@H]1CC[C@H](n2c(=O)n(C)c3cnc4ccc(-c5ccc(N6CCC(N(C)C)CC6)nc5)cc4c32)C1` (single isomer, unassigned) [Example 33, 8-[6-[4-(dimethylamino)-1-piperidyl]-3-pyridyl]-1-[trans-3-methoxycyclopentyl]-3-methyl-imidazo[4,5-c]quinolin-2-one], the figures for the IC50 on ATM, at ATR and on PI3Kα were 0.332 nM, over 25700 nM and 1090 nM, respectively.
Regarding `CC(C)n1c(=O)n(C)c2cnc3ccc(-c4ccc(N5CC[C@@H](N(C)C)C5)nc4)cc3c21` [Example 1, 8-[6-[(3R)-3-(Dimethylamino)pyrrolidin-1-yl]-3-pyridyl]-1-isopropyl-3-methyl-imidazo[4,5-c]quinolin-2-one], at PI3Kα, the IC50 was found to be 470 nM.
